Test results published in publication PMC10901772, “Cytotoxic naphtho- and benzofurans from an endophytic fungus Epicoccum nigrum Ann-B-2 associated with Annona squamosa fruits” (Scientific Reports, 2024).
In brackets after ≈: the same amount, converted by molar mass. Entries after “also recorded” stand apart in the source; their conditions may differ. Read-outs that look alike come from different tables or passages of the source.

Assays:
Type in all cases: cell-based
[1] = system: Staphylococcus aureus [DSM 346]; assay: MIC, 96-well plate serial dilution assay
[2] = system: Mycobacterium smegmatis [ATCC 700084]; assay: MIC, 96-well plate serial dilution assay
[3] = system: Bacillus subtilis [DSM 10]; assay: MIC, 96-well plate serial dilution assay; settings: for MIC: DSM10, concentration range 67 to 0.5 µg/mL
[4] = system: Mucor hiemalis [DSM 2656]; assay: MIC, 96-well plate serial dilution assay
[5] = system: Candida albicans [DSM 1665]; assay: MIC, 96-well plate serial dilution assay
[6] = system: Rhodotorula glutinis [DSM 10134]; assay: MIC, 96-well plate serial dilution assay
[7] = system: human endocervical adenocarcinoma (KB3.1); assay: In vitro cytotoxicity, MTT assay; settings: KB 3-1, KB3.1, MTT
Method: (§1) In vitro cytotoxicity studies (data expressed in the form of IC50 values) were performed over a concentration range between 1 and 37 µg/mL on a panel of seven cancer cell lines including human endocervical adenocarcinoma (KB3.1), mouse fibroblasts (L929), lung cancer (A549), squamous cancer (A431), prostate cancer (PC-3), breast cancer (MCF-7), and ovary cancer (SK-OV-3) using the MTT assay as previously reported.

[8] = system: mouse fibroblasts (L929); assay: In vitro cytotoxicity, MTT assay
Method: as §1

[9] = system: panel of seven cancer cell lines; assay: In vitro cytotoxicity, MTT assay, whole panel; settings: for antiproliferative / anticancer activity (in words): panel of cancer cell lines; for IC50: panel of seven different cancer cell lines, read-out: IC50 values, range over the panel
Method: as §1

[10] = system: remaining strains (S. aureus, M. smegmatis, M. hiemalis, C. albicans, R. glutinis); assay: MIC serial dilution assay, strains other than Bacillus subtilis; settings: all tested strains except Bacillus subtilis
[11] = system: breast cancer (MCF-7); assay: In vitro cytotoxicity, MTT assay; settings: Homo sapiens, MCF7
Method: as §1

[12] = system: lung cancer (A549); assay: In vitro cytotoxicity, MTT assay; settings: Homo sapiens
Method: as §1

[13] = system: ovary cancer (SK-OV-3); assay: In vitro cytotoxicity, MTT assay; settings: Homo sapiens
Method: as §1

[14] = system: prostate cancer (PC-3); assay: In vitro cytotoxicity, MTT assay; settings: for sensitivity of PC-3 (in words): PC-3 (prostate cancer)
Method: as §1

[15] = system: squamous cancer (A431); assay: In vitro cytotoxicity, MTT assay; settings: Homo sapiens, A-431
Method: as §1

[16] = DSM346, concentration range 67 to 0.5 µg/mL, read-out: MIC
[17] = Mycolicibacterium smegmatis, ATCC700084, concentration range 67 to 0.5 µg/mL, read-out: MIC
[18] = DSM2656, concentration range 67 to 0.5 µg/mL, read-out: MIC
[19] = DSM1665, concentration range 67 to 0.5 µg/mL, read-out: MIC
[20] = DSM10134, concentration range 67 to 0.5 µg/mL, read-out: MIC
[21] = concentration range 67 to 0.5 µg/mL

| Molecule | MIC [1, 16] | MIC [2, 17] | MIC [3] | MIC [4, 18] | MIC [5, 19] | MIC [6, 20] | IC50 [7] | IC50 [8] | antiproliferative / anticancer activity (in words) [9] | IC50 ([11]; MCF-7, MTT, read-out: IC50) | IC50 ([12]; A549, MTT, read-out: IC50) | IC50 ([13]; SKOV-3, MTT, read-out: IC50) | IC50 ([14]; PC-3, MTT, read-out: IC50) | IC50 ([15]; A431, MTT, read-out: IC50) | IC50 [9] | other results |
| --- | --- | --- | --- | --- | --- | --- | --- | --- | --- | --- | --- | --- | --- | --- | --- | --- |
| Cc1c(O)c(O)c(O)c(C=O)c1-c1cc2c(C=O)c(C)c(O)c(O)c2o1 [Compound 4, epicoccolide B] | > 67 µg/mL | > 67 µg/mL | 66.6 µg/mL (≈ 186 µM) | > 67 µg/mL | > 67 µg/mL | > 67 µg/mL | 21 µM | 19 µM | weak anticancer activity |  |  |  |  |  |  |  |
| Cc1c2c(c3c(C)c(O)c(C(=O)O)c(O)c3c1O)COC2 [Compound 1, epicoccofuran A] | > 67 µg/mL | > 67 µg/mL | 33.3 µg/mL (≈ 115 µM) | > 67 µg/mL | > 67 µg/mL | > 67 µg/mL | 16 µM | 12 µM | weak anticancer activity |  |  |  |  |  |  | antimicrobial activity against Bacillus subtilis (in words) [3]: moderate activity; also recorded: moderate antimicrobial activities; potency against Bacillus relative to the standard oxytetracycline [3]: almost half; antimicrobial activity against the remaining strains (in words) [10]: no potential activity |
| COC1OC(C2OCc3c(C)c(O)c(O)c(O)c32)c2c(O)c(O)c(O)c(C)c21 (stereo not shown) [Compound 2, flavimycin C] | > 67 µg/mL | > 67 µg/mL | 33.3 µg/mL (≈ 84.9 µM) | > 67 µg/mL | > 67 µg/mL | > 67 µg/mL | 7.8 µM | 6.7 µM | highest potency; also recorded: promising anticancer activities | 2700 nM | 9.2 µM | 17 µM | > 100 µM | 8.2 µM | 1.3 to 12 µM | antimicrobial activity against Bacillus subtilis (in words) [3]: moderate activity; also recorded: moderate antimicrobial activities; potency against Bacillus relative to the standard oxytetracycline [3]: almost half; sensitivity of PC-3 (in words) [14]: insensitive; antimicrobial activity against the remaining strains (in words) [10]: no potential activity |
| C[C@@H]1[C@H](O)[C@@H](C)/C=C/C=C/CC/C=C/C=C/C=C/C=C/C(O[C@H]2O[C@H](C)[C@@H](O)[C@H](N)[C@@H]2O)CC2O[C@](O)(CC(O)C(O)CCC(O)CC(O)CC(O)CC(=O)O[C@H]1C)CC(O)C2C(=O)O (stereo partly shown) [Nystatin, reference compound] |  |  |  |  |  |  |  |  |  |  |  |  |  |  |  | MIC [4, 21]: 2.1^N µg/ml; MIC [5, 21]: 2.1^N µg/ml; MIC [6, 21]: 2.1^N µg/ml |
| Gentamycin [reference compound] |  |  |  |  |  |  |  |  |  |  |  |  |  |  |  | MIC [1, 21]: 0.21^G µg/ml |
| C/C(=C\c1csc(C)n1)[C@@H]1C[C@@H]2O[C@]2(C)CCC[C@H](C)[C@H](O)[C@@H](C)C(=O)C(C)(C)[C@@H](O)CC(=O)O1 [Epothilone B, reference compound] |  |  |  |  |  |  |  |  |  |  |  |  |  |  |  | IC50 [11]: 0.07 nM; IC50 ([12]; A549): 5e-05 µM; IC50 [13]: 9e-05 µM; IC50 [14]: 9e-05 µM; IC50 [15]: 6e-05 µM |
| Cc1c(O)c(O)c(O)c2c1COC2 [Compound 6, 4,5,6-trihydroxy-7-methyl-1,3-dihydroisobenzofuran] | > 67 µg/mL | > 67 µg/mL | > 67 µg/mL | > 67 µg/mL | > 67 µg/mL | > 67 µg/mL | 3.4 µM | 2.8 µM | highest potency; also recorded: promising anticancer activities | 1300 nM | 6.3 µM | 7.8 µM | > 100 µM | 7.3 µM | 1.3 to 12 µM | sensitivity of PC-3 (in words) [14]: insensitive |
| Cc1c(O)c(O)c2c(c1C=O)[C@@H]1O[C@H](O2)c2c(C)c(O)c(O)c(O)c2C1=O [Compound 3, epicocconigrone A] | > 67 µg/mL | > 67 µg/mL | 66.6 µg/mL (≈ 178 µM) | > 67 µg/mL | > 67 µg/mL | > 67 µg/mL | 2.7 µM | 14 µM | active against all tested cell lines; also recorded: promising anticancer activities | 2400 nM | 10 µM | 12 µM | 8 µM | 7.8 µM | 1.3 to 12 µM |  |
| NC[C@H]1O[C@H](O[C@H]2[C@H](O)[C@@H](O[C@H]3O[C@H](CO)[C@@H](O)[C@H](N)[C@H]3O)[C@H](N)C[C@@H]2N)[C@H](O)[C@@H](O)[C@@H]1O [Kanamycin, reference compound] |  |  |  |  |  |  |  |  |  |  |  |  |  |  |  | MIC [2, 21]: 1.7^ K µg/ml |
| Cc1c(O)c(O)c(O)c2c1C(=O)OC2 [Compound 5, epicoccone] | > 67 µg/mL | > 67 µg/mL | > 67 µg/mL | > 67 µg/mL | > 67 µg/mL | > 67 µg/mL | 6.1 µM | 7.5 µM | active against all tested cell lines; also recorded: promising anticancer activities | 3800 nM | 6.8 µM | 8.2 µM | 8 µM | 7.3 µM | 1.3 to 12 µM |  |
| CN(C)[C@@H]1C(O)=C(C(N)=O)C(=O)[C@@]2(O)C(O)=C3C(=O)c4c(O)cccc4[C@@](C)(O)[C@H]3[C@H](O)[C@@H]12 [Oxytetracycline, reference compound] |  |  | 16.6 µg/mL (≈ 36.1 µM) |  |  |  |  |  |  |  |  |  |  |  |  |  |
